We go through three compounds from the NIST ThermoML archive (doi:10.1016/j.fluid.2010.05.013).

For this data set the following is noted: visual observation.

± gives the expanded uncertainty stated by the source.

Consider `CCn1cc[n+](C)c1.O=S(=O)([N-]S(=O)(=O)C(F)(F)F)C(F)(F)F`, for which the Normal melting temperature (Metastable crystal) was -17.00 ± 2 °C.

On to `CCC(=O)O` [propanoic acid], for which the Normal melting temperature (Crystal) was -20.83 ± 0.17 °C.

With `CC(O)C(=O)O` (stereo not drawn) [2-hydroxypropanoic acid], under “Crystal”, the Normal melting temperature worked out at 17 ± 0.17 °C.
